How the values were obtained:
Lethal factor [1] = molecular target: T1, Lethal factor (Bacillus anthracis, UniProt P15917)
T1 sequence (P15917 whole entry): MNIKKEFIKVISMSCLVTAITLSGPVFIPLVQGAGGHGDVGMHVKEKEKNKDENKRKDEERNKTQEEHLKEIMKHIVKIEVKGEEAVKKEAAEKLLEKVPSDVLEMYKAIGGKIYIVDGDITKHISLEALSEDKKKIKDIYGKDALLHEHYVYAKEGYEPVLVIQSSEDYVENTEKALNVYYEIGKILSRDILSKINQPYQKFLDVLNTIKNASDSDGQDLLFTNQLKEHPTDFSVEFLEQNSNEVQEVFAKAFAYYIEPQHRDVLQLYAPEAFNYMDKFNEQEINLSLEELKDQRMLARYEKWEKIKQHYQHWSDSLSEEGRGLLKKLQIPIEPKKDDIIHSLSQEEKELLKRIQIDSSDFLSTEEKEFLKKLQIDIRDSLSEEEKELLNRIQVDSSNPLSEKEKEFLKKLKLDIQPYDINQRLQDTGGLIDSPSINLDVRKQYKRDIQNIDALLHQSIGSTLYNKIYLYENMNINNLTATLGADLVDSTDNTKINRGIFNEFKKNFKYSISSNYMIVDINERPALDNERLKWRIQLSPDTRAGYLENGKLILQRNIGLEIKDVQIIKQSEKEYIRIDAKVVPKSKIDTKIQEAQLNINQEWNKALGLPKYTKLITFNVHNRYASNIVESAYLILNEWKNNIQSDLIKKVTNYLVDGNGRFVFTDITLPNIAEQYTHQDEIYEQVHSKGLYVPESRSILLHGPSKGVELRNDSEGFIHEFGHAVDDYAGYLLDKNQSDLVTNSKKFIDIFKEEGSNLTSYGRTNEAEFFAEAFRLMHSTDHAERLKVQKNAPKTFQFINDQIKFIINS

Lethal factor [2] = molecular target: T1, Lethal factor; remark: listed apart in the source
Lethal factor [3] = molecular target: T1, Lethal factor; assay: Inhibition of LF

## Cc1cc(S(=O)(=O)N[C@@H](C(=O)NO)C2CCCC2)ccc1F
Lethal factor [1]
  IC50: 64 nM
Lethal factor [2]
  IC50: 170 nM

## Cc1cccc(S(=O)(=O)N[C@@H](C(=O)NO)C(C)C)c1
Lethal factor [1]
  IC50: 400 nM
Lethal factor [2]
  IC50: 1290 nM

## Cc1cc(S(=O)(=O)N[C@H](CCNC(=O)C(C)(C)N)C(=O)NO)ccc1F
Lethal factor [1]
  IC50: 57 nM
Lethal factor [2]
  IC50: 8700 nM

## Cc1cc(S(=O)(=O)N[C@@H](C(=O)NO)[C@@H](C)C2CC2)ccc1F
Lethal factor [1]
  IC50: 65 nM
Lethal factor [2]
  IC50: 460 nM

## Cc1cc(S(=O)(=O)N[C@@H](C(=O)NO)C2CC2)ccc1F
Lethal factor [1]
  IC50: 120 nM
Lethal factor [2]
  IC50: 730 nM

## CC(C)[C@@H](NS(=O)(=O)c1ccccc1)C(=O)NO
Lethal factor [1]
  IC50: 1100 nM
Lethal factor [2]
  IC50: 7800 nM

## CC(C)[C@@H](NS(=O)(=O)c1ccc(-c2ccccc2)cc1)C(=O)NO
Lethal factor [1]
  IC50: > 40000 nM
Lethal factor [2]
  IC50: > 20000 nM

## Cc1cc(S(=O)(=O)N[C@H](C)C(=O)NO)ccc1F
Lethal factor [1]
  IC50: 130 nM
Lethal factor [2]
  IC50: 2100 nM

## CCCCOc1ccc(S(=O)(=O)N[C@@H](C(=O)NO)C(C)C)cc1
Lethal factor [1]
  IC50: > 40000 nM
Lethal factor [2]
  IC50: > 20000 nM

## CC(C)[C@@H](NS(=O)(=O)c1ccc(Cl)s1)C(=O)NO
Lethal factor [1]
  IC50: 1310 nM
Lethal factor [2]
  IC50: 6450 nM

## COc1ccc(S(=O)(=O)N(Cc2cccnc2)[C@@H](C(=O)NO)C(C)C)cc1.Cl [CGS-27023A]
Lethal factor [1]
  IC50: 1200 nM
Lethal factor [2]
  IC50: 12000 nM
Lethal factor [3]
  IC50: Active

## Cc1cc(S(=O)(=O)N[C@@H](C(=O)NO)C(C)C)ccc1O
Lethal factor [1]
  IC50: 1640 nM
Lethal factor [2]
  IC50: > 20000 nM

## CC(C)[C@@H](NS(=O)(=O)c1ccc(F)cc1)C(=O)NO
Lethal factor [1]
  IC50: 290 nM
Lethal factor [2]
  IC50: 3000 nM

## Cc1cc(S(=O)(=O)N[C@@H](C(=O)NO)C(C)C)ccc1F
Lethal factor [2]
  IC50: 120 nM

## Cc1cc(S(=O)(=O)N[C@H](CCNC(=O)[C@H](C)N)C(=O)NO)ccc1F
Lethal factor [1]
  IC50: 59 nM
Lethal factor [2]
  IC50: 7470 nM

## COc1ccc(S(=O)(=O)N(C)[C@@H](C(=O)NO)C(C)C)cc1
Lethal factor [2]
  IC50: 17000 nM

## COc1ccc(S(=O)(=O)N(CCn2ccnc2)[C@@H](C(=O)NO)C(C)C)cc1
Lethal factor [1]
  IC50: 19100 nM

## CC(C)[C@@H](NS(=O)(=O)CC(F)(F)F)C(=O)NO
Lethal factor [1]
  IC50: > 40000 nM
Lethal factor [2]
  IC50: > 40000 nM

## CC(C)[C@@H](NS(=O)(=O)c1ccccc1F)C(=O)NO
Lethal factor [1]
  IC50: 6600 nM
Lethal factor [2]
  IC50: > 20000 nM

## CC(C)[C@@H](NS(=O)(=O)c1ccc(F)c2ccccc12)C(=O)NO
Lethal factor [1]
  IC50: 460 nM
Lethal factor [2]
  IC50: 2760 nM

## Cc1cc(S(=O)(=O)N[C@H](CC2CC2)C(=O)NO)ccc1F
Lethal factor [1]
  IC50: 51 nM
Lethal factor [2]
  IC50: 130 nM

## CC(=O)N(Cc1cccnc1)[C@@H](C(=O)NO)C(C)C
Lethal factor [1]
  IC50: > 40000 nM
Lethal factor [2]
  IC50: > 20000 nM

## Cc1cc(S(=O)(=O)N[C@@H](C(=O)NO)C2CCC2)ccc1F
Lethal factor [1]
  IC50: 130 nM
Lethal factor [2]
  IC50: 670 nM

## CC[C@@H](NS(=O)(=O)c1ccc(F)c(C)c1)C(=O)NO
Lethal factor [1]
  IC50: 100 nM
Lethal factor [2]
  IC50: 490 nM

## Cc1ccc(S(=O)(=O)N[C@@H](C(=O)NO)C(C)C)cc1F
Lethal factor [1]
  IC50: 5180 nM
Lethal factor [2]
  IC50: > 20000 nM

## CC(C)[C@@H](NS(=O)(=O)c1ccc(F)cc1CO)C(=O)NO
Lethal factor [1]
  IC50: 1310 nM
Lethal factor [2]
  IC50: > 20000 nM

## CC(C)[C@@H](NS(=O)(=O)c1ccc(F)c(CO)c1)C(=O)NO
Lethal factor [1]
  IC50: 600 nM
Lethal factor [2]
  IC50: 3740 nM

## CC(C)[C@@H](NS(=O)(=O)c1cccc(F)c1)C(=O)NO
Lethal factor [1]
  IC50: 2800 nM
Lethal factor [2]
  IC50: 12400 nM

## Cc1cc(S(=O)(=O)N[C@H](CCNC(=O)CN)C(=O)NO)ccc1F
Lethal factor [1]
  IC50: 37 nM
Lethal factor [2]
  IC50: 7400 nM

## CC(C)[C@@H](NS(=O)(=O)c1ccc(Oc2ccccc2)cc1)C(=O)NO
Lethal factor [1]
  IC50: > 40000 nM
Lethal factor [2]
  IC50: > 20000 nM

## Cc1cc(S(=O)(=O)N[C@@H](C(=O)NO)c2ccccc2)ccc1F
Lethal factor [1]
  IC50: 50 nM
Lethal factor [2]
  IC50: 370 nM

## Cc1cc(S(=O)(=O)N[C@@H](C(=O)NO)C2CCCCC2)ccc1F
Lethal factor [1]
  IC50: 42 nM
Lethal factor [2]
  IC50: 190 nM

## Cc1ccc(S(=O)(=O)N[C@@H](C(=O)NO)C(C)C)cc1
Lethal factor [1]
  IC50: 3000 nM
Lethal factor [2]
  IC50: 15000 nM

## COc1ccc(S(=O)(=O)N[C@@H]2CCN(O)C2=O)cc1
Lethal factor [1]
  IC50: > 40000 nM
Lethal factor [2]
  IC50: > 40000 nM

## CC[C@H](C)[C@@H](NS(=O)(=O)c1ccc(F)c(C)c1)C(=O)NO
Lethal factor [1]
  IC50: 67 nM
Lethal factor [2]
  IC50: 230 nM

## CC[C@@H](C)[C@@H](NS(=O)(=O)c1ccc(F)c(C)c1)C(=O)NO
Lethal factor [1]
  IC50: 67 nM
Lethal factor [2]
  IC50: 130 nM

## CCCC[C@@H](NS(=O)(=O)c1ccc(F)c(C)c1)C(=O)NO
Lethal factor [1]
  IC50: 70 nM
Lethal factor [2]
  IC50: 410 nM

## Cc1cc(S(=O)(=O)NC(CCc2c[nH]cn2)C(=O)NO)ccc1F (racemic)
Lethal factor [1]
  IC50: 75 nM
Lethal factor [2]
  IC50: 2800 nM

## Cc1cc(S(=O)(=O)N[C@@H](C(=O)NO)C(C)C)ccc1OCc1ccccc1
Lethal factor [1]
  IC50: > 40000 nM
Lethal factor [2]
  IC50: > 20000 nM

## CC(C)[C@@H](NS(=O)(=O)c1ccc(C(F)(F)F)cc1)C(=O)NO
Lethal factor [1]
  IC50: > 40000 nM
Lethal factor [2]
  IC50: > 20000 nM

## Cc1cc(S(=O)(=O)N[C@@H](C(=O)NO)[C@H]2CCOC2)ccc1F
Lethal factor [1]
  IC50: 120 nM
Lethal factor [2]
  IC50: 450 nM

## Cc1cc(S(=O)(=O)N[C@@H](C(=O)NO)C(C)(C)C)ccc1F
Lethal factor [1]
  IC50: 300 nM
Lethal factor [2]
  IC50: 2300 nM

## COc1ccc(S(=O)(=O)N(CCc2ccsc2)[C@@H](C(=O)NO)C(C)C)cc1
Lethal factor [1]
  IC50: 2100 nM

## CC(C)[C@@H](NS(=O)(=O)CCc1ccccc1)C(=O)NO
Lethal factor [1]
  IC50: 11900 nM
Lethal factor [2]
  IC50: > 20000 nM

## CC(C)[C@@H](NS(=O)(=O)Cc1cccc(Cl)c1)C(=O)NO
Lethal factor [1]
  IC50: 16600 nM
Lethal factor [2]
  IC50: > 20000 nM

## Cc1cc(S(=O)(=O)N[C@H](CCOCCN)C(=O)NO)ccc1F
Lethal factor [1]
  IC50: 48 nM
Lethal factor [2]
  IC50: 3500 nM

## COc1ccc(S(=O)(=O)N[C@@H](C(=O)NO)C(C)C)cc1
Lethal factor [1]
  IC50: 900 nM
Lethal factor [2]
  IC50: 7300 nM

## CC(C)[C@@H](NS(=O)(=O)c1ccc(-c2cnns2)s1)C(=O)NO
Lethal factor [1]
  IC50: 810 nM
Lethal factor [2]
  IC50: 10200 nM

## COc1ccc(S(=O)(=O)N(Cc2ccncc2)[C@@H](C(=O)NO)C(C)C)cc1
Lethal factor [1]
  IC50: 3100 nM
Lethal factor [2]
  IC50: 9500 nM

## Cc1cc(S(=O)(=O)N[C@H](CCCN=C(N)N)C(=O)NO)ccc1F
Lethal factor [1]
  IC50: 40 nM
Lethal factor [2]
  IC50: 1700 nM

Reference: ChEMBL document CHEMBL1138106, “The discovery of a potent and selective lethal factor inhibitor for adjunct therapy of anthrax infection” (Bioorg Med Chem Lett, 2006)
